Entries after “also recorded” stand apart in the source; their conditions may differ.
Test system: HIF-1α
Assay: Immunoblot of heterologously expressed HIF-1α cDNA with or without 5'TOP sequences
Format: cell-based, human
Conditions: VHL wild-type SN12C cells, 1 or 10 nM CCI-779, 24 hours
Experimental: (a) SN12C-CSCG and SN12C-VHLshRNA cell were treated with vehicle, 1 nM or 10 nM of CCI-779 and lysed 24 hours later. Lysates were subjected to immunoblotting for HIF-1α, HIF-2α, GLUT-1, CA-IX, p-eIF4G, p-S6 Ribosomal protein. Equal protein loading was verified using anti-β-actin antibody. (b) HIF-1α expression was probed by immunoblotting in SN12C-MSCV-5′TOP-HIF-1α cDNA (left panel) and SN12C-MSCV-HIF-1α cDNA (tight panel) post 24 hours of vehicle, 1 nM or 10 nM of CCI-779.
The pCSUVCG (U6-shRNA-VHL-CMV-GFP) was constructed by ligating the BamHI/EcoRI digests of pCSCG and the U6-shRNA-VHL PCR product (see, e.g. Chen, C. D. et al. Nat Med 10, 33-9 (2004)). The U6-shRNA-VHL PCR was performed using a hU6-containing plasmid at an annealing temperature of 60° C. with the primers 5′ abc 3′ and 5′ xyz 3′. […]
Cells and xenograft tumors were lysed in ECB lysis buffer or high-detergent buffer (2% SDS), respectively, supplemented with complete protease and phosphatase inhibitor cocktails (Calbiochem). […] Bound antibody was detected using enhanced chemiluminescence (ECL, Amersham). For VEGF ELISA quantification, cells were plated in 6 well plates (1×10^5 per well). […] Thirty-six hours later, VEGF ELISA (R&D Systems) was performed according to the manufacturer's instructions, using a Fisher Plate reader. […]

CO[C@H]1C[C@@H]2CC[C@@H](C)[C@@](O)(O2)C(=O)C(=O)N2CCCC[C@H]2C(=O)O[C@H]([C@H](C)C[C@@H]2CC[C@@H](OC(=O)C(C)(CO)CO)[C@H](OC)C2)CC(=O)[C@H](C)/C=C(\C)[C@@H](O)[C@@H](OC)C(=O)[C@H](C)C[C@H](C)/C=C/C=C/C=C/1C [CCI-779]
HIF-1α protein levels, 5'TOP sequence removed: largely unaffected | HIF-1α protein levels, cDNA retaining the 5'TOP sequences: reduction in HIF-1α protein levels; also recorded: decrease in HIF-1α protein levels
